Consider 6 compounds from patent US10010539B2, “Pyrazole, triazole and tetrazole orexin receptor antagonists” (MERCK SHARP & DOHME CORP., priority 2014, dated 2018).

Assay [1] addresses human orexin-2 receptor (Homo sapiens (Human), UniProt O43614). Put plainly: FLIPR Ca2+ Flux Assay, orexin-2 receptor (hOX2R FLIPR). The format is cell-based. Conditions: CHO cells expressing the human orexin-2 receptor; agonist 70 pM Ala-6,12 human orexin-A. In a few lines:
(§1)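 CHO cells expressing rat orexin-1 or human orexin-2 receptor were loaded with Fluo-4AM (1 μM, 60 min, 37 °C), preincubated with compound for 5 min, then stimulated with 70 pM Ala-6,12 human orexin-A in HBSS/HEPES/probenecid, pH7.4. Peak fluorescence over 5 min was compared with agonist-only wells to give IC50.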
(In general: Calcium assays in cells follow changes in intracellular calcium, usually with a dye or a luminescent sensor.)

Assay [2] has as its target hOXIR (orexin-1 receptor) (Homo sapiens, UniProt O43613). Put plainly: FLIPR Ca2+ Flux Assay, orexin-1 receptor (hOXIR FLIPR). Type of assay: cell-based. As to conditions: CHO cells expressing the orexin-1 receptor (method text: rat; table head: hOXIR); agonist 70 pM Ala-6,12 human orexin-A. In a few lines: as §1

Sequence of human orexin-2 receptor (O43614 whole entry): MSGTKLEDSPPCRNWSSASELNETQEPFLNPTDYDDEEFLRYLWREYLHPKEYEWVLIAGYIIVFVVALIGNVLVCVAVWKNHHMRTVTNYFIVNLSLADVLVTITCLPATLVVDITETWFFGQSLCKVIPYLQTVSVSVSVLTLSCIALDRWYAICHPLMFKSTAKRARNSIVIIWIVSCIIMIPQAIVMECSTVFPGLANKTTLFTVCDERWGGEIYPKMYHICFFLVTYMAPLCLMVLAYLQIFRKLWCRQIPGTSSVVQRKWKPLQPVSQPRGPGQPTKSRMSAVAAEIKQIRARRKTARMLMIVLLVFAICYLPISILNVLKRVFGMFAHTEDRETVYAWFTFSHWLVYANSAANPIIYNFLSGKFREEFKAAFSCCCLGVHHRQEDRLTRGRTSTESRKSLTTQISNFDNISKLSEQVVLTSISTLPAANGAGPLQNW

As to `Cc1nn([C@@H]2CC[C@@H](C)N(C(=O)c3ccccc3-n3nccn3)C2)cc1C(C)(C)O` [Example 107, 2-{3-Methyl-1-[(3R,6R)-6-methyl-1-{[2-(2H-1,2,3-triazol-2-yl)phenyl]carbonyl}piperidin-3-yl]-1H-pyrazol-4-yl}propan-2-ol], the IC50 was determined as 13.8 nM in assay [1] and 339 nM in assay [2].

On to `Cc1nn([C@@H]2CC[C@@H](C)N(C(=O)c3ccccc3OC(F)F)C2)nc1C(C)(C)O` [Example 66, 2-{2-[(3R,6R)-1-{[2-(Difluoromethoxy)phenyl]carbonyl}-6-methylpiperidin-3-yl]-5-methyl-2H-1,2,3-triazol-4-yl}propan-2-ol], for which the IC50 in assay [1] was found to be 9.6 nM; in assay [2] it was 3060 nM.

As to `CC(C)c1ccccc1C(=O)N1C[C@H](n2cc(C(C)(C)O)cn2)CC[C@H]1C` [Example 82, 2-{1-[(3R,6R)-6-Methyl-1-{[2-(1-methylethyl)phenyl]carbonyl}piperidin-3-yl]-1H-pyrazol-4-yl}propan-2-ol], the IC50 in assay [1] is 347 nM; in assay [2], > 10000 nM.

Turning to `CCOc1ccccc1C(=O)N1C[C@H](n2cc(C(C)(C)O)cn2)CC[C@H]1C` [Example 77, 2-(1-{(3R,6R)-1-[(2-Ethoxyphenyl)carbonyl]-6-methylpiperidin-3-yl}-1H-pyrazol-4-yl)propan-2-ol], the IC50 is 121 nM in assay [1] and > 10000 nM in assay [2].

On to `C[C@@H]1CC[C@@H](n2ncc(C(C)(C)O)n2)CN1C(=O)c1ccccc1OC(F)F` [Example 21, (2-(Difluoromethoxy)phenyl)((2R,5R)-5-(4-(2-hydroxypropan-2-yl)-2H-1,2,3-triazol-2-yl)-2-methylpiperidin-1-yl)methanone], for which the IC50 is 18 nM in assay [1] and > 10000 nM in assay [2].

For `C[C@@H]1CC[C@@H](n2cc(C(C)(C)O)cn2)CN1C(=O)c1ccccc1[C@@H]1CC1(F)F` [Example 85, 2-{1-[(3R,6R)-1-({2-[(1S)-2,2-Difluorocyclopropyl]phenyl}carbonyl)-6-methylpiperidin-3-yl]-1H-pyrazol-4-yl}propan-2-ol], the IC50 turned out to be 9.4 nM in assay [1] and 2640 nM in assay [2].

As usually defined, the IC50 is the concentration that gives 50% inhibition. Low values mean higher potency, high ones lower potency.
